Laboratory results from PubChem BioAssay (NCI).
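Step 1: Grow cells in 96-well plates. Step 2: Expose to compound for 48 hours at 5 concentrations. Step 3: Interpolate endpoints linearly; if unreached, use highest concentration. GI50: concentration for 50% inhibition of growth. The concentration for full growth arrest is given as TGI.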

Columns and labels:
Experiment in all cases: NCI anticancer screen, dose series, 48 h
[1] = test system: UO-31 renal
[2] = test system: A549 NSCLC
[3] = test system: HL-60(TB) leukemia
[4] = test system: SF-539 CNS
[5] = test system: OVCAR-5 ovarian
[6] = test system: 786-0 renal
[7] = test system: HCT-15 colon
[8] = test system: MCF7 breast
[9] = test system: MOLT-4 leukemia
[10] = test system: HCT-116 colon
[11] = test system: K-562 leukemia
[12] = test system: HT29 colon
[13] = test system: U251 CNS
[14] = test system: HCC-2998 colon
[15] = test system: COLO 205 colon
[16] = test system: ACHN renal
[17] = test system: M14 melanoma
[18] = test system: BT-549 breast
[19] = test system: SK-MEL-28 melanoma
[20] = test system: CAKI-1 renal
[21] = test system: OVCAR-4 ovarian
[22] = test system: A498 renal
[23] = test system: NCI-H226 lung
[24] = test system: PC-3 prostate
[25] = test system: NCI-H460 lung
[26] = test system: SF-268 CNS
[27] = test system: MALME-3M melanoma
[28] = test system: SNB-19 CNS
[29] = test system: SR leukemia
[30] = test system: KM12 colon
[31] = test system: UACC-62 melanoma
[32] = test system: NCI/ADR-RES ovarian
[33] = test system: SNB-75 CNS
[34] = test system: DU-145 prostate
[35] = test system: SK-MEL-2 melanoma
[36] = test system: CCRF-CEM leukemia
[37] = test system: SK-MEL-5 melanoma
[38] = test system: NCI-H522 lung
[39] = test system: TK-10 renal
[40] = test system: UACC-257 melanoma
[41] = test system: NCI-H23 lung
[42] = test system: RPMI-8226 leukemia
[43] = test system: OVCAR-3 ovarian
[44] = test system: IGROV1 ovarian
[45] = test system: HS 578T breast
[46] = test system: SK-OV-3 ovarian
[47] = test system: MDA-MB-231 breast
[48] = test system: OVCAR-8 ovarian
[49] = test system: RXF 393 renal
[50] = test system: SN12C renal
[51] = test system: HOP-92 NSCLC
[52] = test system: HOP-62 NSCLC
[53] = test system: SW-620 colon
[54] = test system: MDA-MB-435
[55] = test system: LOX IMVI melanoma
[56] = test system: MDA-MB-468 breast
[57] = test system: EKVX NSCLC
[58] = test system: SF-295 CNS

O=C(CNc1nc(-c2ccccc2)cs1)Nc1ccc(Br)cc1 gave a GI50 [1] of 1050 nM, a TGI [1] of 2330 nM and a GI50 [2] of 1660 nM. For the same compound, the TGI [2] was 3560 nM, the GI50 [3] was 1320 nM and the TGI [3] was 49200 nM. It also gave a GI50 [4] of 779 nM, a TGI [4] of 2020 nM and a GI50 [5] of 1610 nM. The TGI [5] was 3020 nM, the GI50 [6] was 798 nM and the TGI [6] was 2100 nM. The GI50 [7] was 469 nM, the TGI [7] was 1160 nM and the GI50 [8] was 625 nM. The TGI [8] was 1940 nM, the GI50 [9] was 424 nM and the GI50 [10] was 507 nM. For the same compound, the TGI [10] was 1660 nM, the GI50 [11] was 309 nM and the TGI [11] was > 100000 nM. It also gave a GI50 [12] of 752 nM, a TGI [12] of 2160 nM and a GI50 [13] of 525 nM. It also gave a TGI [13] of 1340 nM, a GI50 [14] of 1450 nM and a TGI [14] of 2770 nM. The GI50 [15] was 1300 nM, the TGI [15] was 2840 nM and the GI50 [16] was 844 nM. For the same compound, the TGI [16] was 2160 nM, the GI50 [17] was 875 nM and the TGI [17] was 2490 nM. It also gave a GI50 [18] of 498 nM, a TGI [18] of 1680 nM and a GI50 [19] of 1580 nM. It also gave a TGI [19] of 2970 nM, a GI50 [20] of 917 nM and a TGI [20] of 2300 nM. The GI50 [21] was 1330 nM, the TGI [21] was 2980 nM and the GI50 [22] was 3650 nM. It also gave a TGI [22] of 7990 nM, a GI50 [23] of 1120 nM and a TGI [23] of 3510 nM. For the same compound, the GI50 [24] was 1240 nM, the TGI [24] was 3620 nM and the GI50 [25] was 1430 nM. It also gave a TGI [25] of 3420 nM, a GI50 [26] of 1720 nM and a TGI [26] of 7070 nM. It also gave a GI50 [27] of 739 nM, a TGI [27] of 2090 nM and a GI50 [28] of 1480 nM. The TGI [28] was 3080 nM, the GI50 [29] was 470 nM and the TGI [29] was > 100000 nM. The GI50 [30] was 1790 nM, the TGI [30] was 5350 nM and the GI50 [31] was 903 nM. The TGI [31] was 2320 nM, the GI50 [32] was 557 nM and the TGI [32] was 3680 nM. It also gave a GI50 [33] of 1130 nM, a TGI [33] of 5940 nM and a GI50 [34] of 1600 nM. For the same compound, the TGI [34] was 3050 nM, the GI50 [35] was 1320 nM and the TGI [35] was 2700 nM. The GI50 [36] was 245 nM, the TGI [36] was > 100000 nM and the GI50 [37] was 707 nM. It also gave a TGI [37] of 1870 nM, a GI50 [38] of 168 nM and a TGI [38] of 339 nM. For the same compound, the GI50 [39] was 1840 nM, the TGI [39] was 3270 nM and the GI50 [40] was 1410 nM. The TGI [40] was 3140 nM, the GI50 [41] was 646 nM and the TGI [41] was 1890 nM. The GI50 [42] was 396 nM, the TGI [42] was 1890 nM and the GI50 [43] was 747 nM. It also gave a TGI [43] of 1930 nM, a GI50 [44] of 876 nM and a TGI [44] of 2430 nM. It also gave a GI50 [45] of 2140 nM, a TGI [45] of 22300 nM and a GI50 [46] of 1940 nM. It also gave a TGI [46] of 4750 nM, a GI50 [47] of 655 nM and a TGI [47] of 1970 nM. The GI50 [48] was 1660 nM, the TGI [48] was 6070 nM and the GI50 [49] was 1150 nM. It also gave a TGI [49] of 2540 nM, a GI50 [50] of 649 nM and a TGI [50] of 1990 nM. It also gave a GI50 [51] of 1400 nM, a TGI [51] of 3100 nM and a GI50 [52] of 1600 nM. The TGI [52] was 3170 nM, the GI50 [53] was 759 nM and the TGI [53] was 2300 nM. The GI50 [54] was 1020 nM, the TGI [54] was 2790 nM and the GI50 [55] was 296 nM. The TGI [55] was 1290 nM, the GI50 [56] was 532 nM and the TGI [56] was 1180 nM. The GI50 [57] was 1420 nM, the TGI [57] was 3030 nM and the GI50 [58] was 1480 nM. For the same compound, the TGI [58] was 4100 nM.
